Values of other authors as cited in patent US9073940B2, “Tricyclic pyrazol amine derivatives” (MERCK SERONO SA, priority 2009, dated 2015).
pIC50: −log10 of the molar value. Read-outs that look alike come from different tables or passages of the source.

Assays:
[1] = tested on: Class I PI3-kinases; details: each of the Class I PI3-kinases, cited from earlier work
[2] = target: CK2 protein kinase (Homo sapiens (Human), UniProt P68400); details: cited from earlier work
Sequence of CK2 protein kinase (P68400 whole entry): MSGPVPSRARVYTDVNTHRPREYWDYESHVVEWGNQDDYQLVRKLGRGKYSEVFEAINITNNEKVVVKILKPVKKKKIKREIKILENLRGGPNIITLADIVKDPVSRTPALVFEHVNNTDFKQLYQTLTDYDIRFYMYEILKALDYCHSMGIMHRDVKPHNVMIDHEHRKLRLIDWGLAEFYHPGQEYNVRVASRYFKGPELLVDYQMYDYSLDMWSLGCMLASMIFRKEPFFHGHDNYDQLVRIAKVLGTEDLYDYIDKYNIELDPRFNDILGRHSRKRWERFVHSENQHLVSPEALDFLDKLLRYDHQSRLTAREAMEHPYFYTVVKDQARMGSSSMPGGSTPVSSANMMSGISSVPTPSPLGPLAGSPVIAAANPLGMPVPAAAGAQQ

Row | SMILES | pIC50 ([1]; read-out: IC50 against each of the various Class I PI3-kinases) | pIC50 ([1]; read-out: IC50 against each of these PI3-kinases) | pIC50 [2]
1 | COC[C@H]1OC(=O)c2coc3c2[C@@]1(C)C1=C(C3=O)[C@@H]2CCC(=O)[C@@]2(C)C[C@H]1OC(C)=O [Wortmannin] | 8.00 to 9.00 | – | –
2 | O=c1cc(N2CCOCC2)oc2c(-c3ccccc3)cccc12 [LY294002] | – | 4.70 to 4.82 | 5.00 to 5.30
